Experimental data taken from patent publication US10835533B2, “1 -((3S,4R)-4-(3-fluorophenyl)-1-(2-methoxyethyl)pyrrolidin-3-yl)-3-(4-methyl-3-(2-methylpyrimidin-5-yl)-1-phenyl-1H-pyrazol-5-yl)urea as a TrkA kinase inhibitor” (Array BioPharma Inc., priority 2014, dated 2020).
Marks after values point to notes of the source that are not given here.

How the values were obtained:
[1] = IV clearance, 1 mg/kg IV, monkey; assay type: in vivo; settings: for in vivo/in vitro correction factor: microsomal CLh divided by IV CL; for clearance: plasma, 1 mg/kg IV
Description: (§1) In Table 1, the predicted human IV clearance values were calculated from compound concentration-versus-time data in plasma collected from pre-clinical species (mouse, rat, dog and monkey) following 1 mg/kg intravenous (IV) doses. Concentrations of compound in plasma were measured by LC-MS (liquid chromatography-mass spectrometry). AUCinf values (Area under the plasma concentration-time curve for a dosing interval from time 0 extrapolated to infinity) for individual Cp/t curves (concentration of the drug in plasma at any time t) were determined using linear-trapezoidal integration and first order extrapolation from terminal points of the Cp/t curves, and clearance (CL) was calculated using Dose/AUCinf.

[2] = IV clearance, 1 mg/kg IV, dog; assay type: in vivo; settings: for clearance: male, Beagle, plasma, 1 mg/kg IV; for in vivo/in vitro correction factor: microsomal CLh divided by IV CL
Description: as §1
An IV dose formulation for delivery of a 1 mg/kg in 1 mL/kg dose volume was prepared as follow. The vehicle for the formulation was 20% Trappsol® (hydroxypropyl Beta cyclodextrin; CDT, Inc.) (aq) in water. A final volume of the vehicle was added to each of Compound 1, Compound 2, and Compound 3 (as dry compounds) and the mixture was stirred until a homogeneous solution was obtained. The pH of the final solution was 7. The solution was filtered using a 0.2 μM filter before delivering to the animal.
Male Beagle dogs received a single intravenous dose following an overnight fast. Blood/plasma was collected (1.5 mL/timepoint) in K2EDTA blood collection tubes at the following time points post-dose: 0, 1, 5, 15, and 30 minutes, and 1, 2, 4, 8, 12, 24, and 48 hours, and mixed thoroughly. Blood samples were collected from the jugular, cephalic or saphenous veins from conscious animals. Blood samples were kept on ice until processed for plasma. Blood samples were centrifuged at 3200 RPM for 10 minutes at approximately 5° C. Plasma samples were directly transferred to 96-well plate tubes (MatrixTech, 0.75 mL). Rubber injectable caps were placed on the 96-well plate tubes. Plasma samples were stored at −20±5° C. until analyzed.
A single 12-point calibration curve was prepared by first serially diluting (3-fold) a 40-μg/mL stock solution of Compound 1, Compound 2, and Compound 3 in DMSO to provide standard solutions. Plasma (20 μL) was then added to the extraction plate, and 2.5 μL of each standard solution was added to the naïve plasma. A stock solution of an internal standard (10.0 μL of 2.5 μg/mL in acetonitrile) subsequently was added to each standard and sample solution. Proteinaceous material was precipitated from 20 μL of plasma with the addition of 317.5 μL of acetonitrile for a total volume of 350 μL. Samples were vortex-mixed for 5 minutes and spun in an Allegra X-12R centrifuge (Beckman Coulter, Fullerton, Calif.) for 15 minutes at approximately 1,500×g at 4° C. A 100-μL aliquot of each supernatant was transferred via a 550 μL Personal Pipettor (Apricot Designs, Monrovia, Calif.) to 96-well plates and diluted 1:1 with HPLC grade water. The resulting plates were sealed with plate mats and the amount of Compound 1 n plasma was analyzed by LC-MS/MS.
The LC-MS/MS system was comprised of an HTC-PAL autosampler (Leap Technologies, Inc., Carrboro, N.C.), an HP1100 HPLC (Agilent Technologies Inc., Santa Clara, Calif.), and an API4000 triple quadrupole mass spectrometer (Applied Biosystems, Foster City, Calif.). Chromatographic retention of the analyte and internal standard was achieved using a Phenomenex® Synergi 4μ Hydro-RP 80A column (2.1×30 mm, 4 μm particle size; Phenomenex, Torrance, Calif.) in conjunction with gradient conditions using mobile phases A (10 mM ammonium acetate in aqueous 0.1% formic acid and 1% isopropyl alcohol) and B (10 mM ammonium acetate in 89.9% acetonitrile, 10% methanol, 0.1% formic acid). The total run time, including re-equilibration time, for a single injection was 3.5 minutes and the flow rate was 0.8 mL/minute. Solvent B was increased from 5 to 95% in 1.0 minute, held at 95% for 1.0 minute, and then decreased to 5% in 0.1 minute. […]

[3] = Predicted human IV clearance (microsomal CLh/correction factor); settings: for in vivo/in vitro correction factor: pre-clinical mean correction factor for all species tested; for IV clearance (predicted): predicted from human microsomal CLh and mean pre-clinical correction factor
Description: as §1
The in vivo/in vitro correction factor was then determined by dividing the […]. The arithmetic mean of the pre-clinical correction factors for each compound was used to predict the human IV clearance from the measured human microsomal CLh (CLh/correction factor).

Compound	in vivo/in vitro correction factor [1]	clearance [1] [mL/min/kg]	clearance [2] [mL/min/kg]	in vivo/in vitro correction factor [2]	in vivo/in vitro correction factor [3]	IV clearance (predicted) [3]
COCCN1C[C@@H](NC(=O)Nc2c(C)c(-c3cnn(C)c3)nn2-c2ccccc2)[C@H](c2ccc(F)cc2)C1 [Compound 3, 1-(1′,4-dimethyl-1-phenyl-1H,1′H-[3,4′-bipyrazol]-5-yl)-3-((3S,4R)-4-(4-fluorophenyl)-1-(2-methoxyethyl)pyrrolidin-3-yl)urea]	0.84	38	18	1.28	0.96 ***	10 (predicted)** mL/min/kg
COCCN1C[C@@H](NC(=O)Nc2c(C)c(-c3cnc(C)nc3)nn2-c2ccccc2)[C@H](c2cccc(F)c2)C1 [Compound 1, 1-((3S,4R)-4-(3-fluorophenyl)-1-(2-methoxyethyl)pyrrolidin-3-yl)-3-(4-methyl-3-(2-methylpyrimidin-5-yl)-1-phenyl-1H-pyrazol-5-yl)urea]	1.65	20	7.6	3.16	2.09 ***	5 (predicted)** mL/min/kg
COCCN1C[C@@H](NC(=O)Nc2c(C)c(-c3cnc(C)nc3)nn2-c2ccccc2)[C@H](c2ccc(F)c(F)c2)C1 [Compound 2, 1-((3S,4R)-4-(3,4-difluorophenyl)-1-(2-methoxyethyl)pyrrolidin-3-yl)-3-(4-methyl-3-(2-methylpyrimidin-5-yl)-1-phenyl-1H-pyrazol-5-yl)urea]	2.11	18	25	1.04	1.32 ***	12 (predicted)** mL/min/kg
